Experimental data as given in the NIST ThermoML archive (doi:10.1016/j.jct.2003.11.001).

Assay: mn = molality of the nth substance listed, in mol/kg
Details: 101.3 kPa, Liquid; for viscosity: Capillary tube (Ostwald / Ubbelohde) method

CCCCCC(=O)[O-].[Na+] [sodium hexanoate] + O
Details | mass density, m1 = 0.5 [kg/m3] | mass density, m1 = 1 [kg/m3] | mass density, m1 = 1.5 [kg/m3] | mass density, m1 = 2.177 [kg/m3] | viscosity, m1 = 0.5 [mPa·s] | viscosity, m1 = 1 [mPa·s] | viscosity, m1 = 1.5 [mPa·s] | viscosity, m1 = 2.177 [mPa·s]
298.15 K | 1014.4 | 1029.41 | 1041.88 | 1054.22 | 1.212 | 1.607 | 2.102 | 3.187
308.15 K | 1010.74 | 1024.96 | 1036.7 | 1048.72 | 0.956 | 1.24 | 1.601 | 2.402
